Measurements taken from patent publication US11370781B2, “Combination therapy for treating cancer” (Epizyme, Inc., priority 2012, dated 2022).
Entries after “also recorded” stand apart in the source; their conditions may differ. Where two headings read alike, the source gives them in different places.

Key:
[1] = system: SU-DHL-10 cells; assay: Anti-proliferative combination matrix, Cell Titer-Glo, SU-DHL-10; settings: for enhancement of Compound 44 potency (fold IC50 shift): drug combined with Compound 44, top dose of drug, 4 days Compound 44 then 3 days combination; for synergy characterization (Chou-Talalay): drug combined with Compound 44
Procedure: (§6) The WSU-DLCL2 and SU-DHL-10 contain the Y641 EZH2 mutation, and the Toledo cell line contains WT EZH2.
(§7) Increasing doses of drugs were then added to the plates. […] After incubation for an additional 3 days cell viability of WSU-DLCL2 or SU-DHL-10 was measured using Promega Cell Titer-Glo reagent followed by luminescence detection. After 5 days viability of Toledo cells was measured using Promega Cell Titer-Glo reagent followed by luminescence detection.
(§8) First, raw luminescence values were converted to percent inhibition or fraction affected (Fa) calculated using controls for maximum inhibition and DMSO treated cells for minimum inhibition control located on each plate. Percent inhibition values for each constant ratio of compound combinations were entered into Calcusyn to determine the combination index values.

[2] = system: WSU-DLCL2 cells; assay: Anti-proliferative combination matrix, Cell Titer-Glo, WSU-DLCL2; settings: for enhancement of Compound 44 potency (fold IC50 shift): drug combined with Compound 44, top dose of drug, 4 days Compound 44 then 3 days combination; for synergy characterization (Chou-Talalay): drug combined with Compound 44
Procedure: as §6, §7, §8

[3] = system: Toledo cells; assay: Anti-proliferative combination matrix, Cell Titer-Glo, Toledo; settings: Toledo (WT EZH2); for combination benefit: drug combined with Compound 44, 6 days Compound 44 then 5 days combination
Procedure: as §6, §7, §8

[4] = system: WSU-DLCL2 human lymphoma cells; assay: Cell viability of WSU-DLCL2 cells, Guava ViaCount and flow cytometry; assay type: cell-based; settings: for cell viability, combination with Compound 44: WSU-DLCL2
Procedure: The dosage schedule is depicted in FIG. 1A. […] After 4 days, cell viability was determined using Millipore Guava ViaCount Reagent and flow cytometry analysis.
Cell viability was determined by staining with Millipore Guava ViaCount Reagent and then analyzed by flow cytometry.
(§1) Cell viability was determined 4 days later using Millipore Guava ViaCount reagent and flow cytometry analysis. Percentage of cell viability was normalized to percentage of the DMSO-treated sample.

[5] = system: OCI-LY19 cell line; assay: Cell viability of OCI-LY19 cells, Guava ViaCount and flow cytometry; assay type: cell-based, human; settings: OCI-LY19 (wild-type EZH2); for cell viability: single agent
Procedure: as §1

[6] = system: SUDHL10 human lymphoma cells; assay type: in vivo; settings: 28 days
Procedure: (§2) The animals were fed ad libitum water (reverse osmosis 1 ppm Cl) and NIH 31 Modified and Irradiated Lab Diet® consisting of 18.0% crude protein, 5.0% crude fat, and 5.0% crude fiber. The mice were housed on irradiated Enrich-o'cobs™ bedding in static microisolators on a 12-hour light cycle at 20-22° C. (68-72° F.) and 40-60% humidity. All procedures comply with the recommendations of the Guide for Care and Use of Laboratory Animals with respect to restraint, husbandry, surgical procedures, feed and fluid regulation, and veterinary care.
(§3) Human lymphoma cell lines were harvested during mid-log phase growth, and resuspended in PBS with 50% Matrigel™ (BD Biosciences). Each mouse received 1×10^7 cells (0.2 mL cell suspension) subcutaneously in the right flank. Tumors were calipered in two dimensions to monitor growth as the mean volume approached the desired 80-120 mm^3 range. Tumor size, in mm^3, was calculated from: […]
(§4) Compounds of Formula (IIa) were stored at room temperature and protected from light. On each treatment day, a fresh compound formulations were prepared by suspending the powders in 0.5% sodium carboxymethylcellulose (NaCMC) and 0.1% Tween® 80 in deionized water. […] Formulations were stored away from light at 4° C. prior to administration.
Several chemotherapeutica were used in parallel to Epizyme compounds. […]
(§5) Mice were treated at compound doses ranging from 75-600 mg/kg and at TID (3 times a day every 8 h), BID (twice a day every 12 h) or QD (once a day) schedules for various amount of days by oral gavage or injections via the intravenous, intraperitoneal or subcutaneous routes. Each dose was delivered in a volume of 0.2 mL/20 g mouse (10 mL/kg), and adjusted for the last recorded weight of individual animals. […]
Treatment efficacy was determined on the last treatment day. MTV(n), the median tumor volume for the number of animals, n, evaluable on the last day, was determined for each group. […] First, the difference between the MTV(n) of the designated control group and the MTV(n) of the drug-treated group is expressed as a percentage of the MTV(n) of the control group: […]

[7] = Compound 44 plasma concentration in WSU-DLCL2 tumor-bearing mice, LC-MS/MS; settings: 225 mg/kg BID
Procedure: On several days during the study mice were sampled in a pre-specified fashion. Sampling included non-terminal bleeds (0.25 mL) from the mandibular vein without anesthesia and full volume blood collection via terminal cardiac puncture under CO2 anesthesia. Blood samples were processed for plasma, with K2-EDTA as anti-coagulant. The plasma samples were frozen at −80° C. and stored prior to bioanalysis of compound levels.
Plasma samples were obtained on day 28 at 5 minutes prior to the last dose (“trough”) and 3 hours after the last dose (“post”).

[8] = system: RL cells; assay: Cell viability of RL cells, Guava ViaCount and flow cytometry; assay type: cell-based, human; settings: RL cells (EZH2 Y641N); for cell viability: single agent
Procedure: as §1

[9] = system: WSU-DLCL2 human lymphoma cells; assay: Efficacy study in WSU-DLCL2 xenograft model; assay type: in vivo; settings: 28 days
Procedure: as §2, §3, §4
Several chemotherapeutica were used in parallel to Epizyme compounds. Cyclophosphamide (Baxter, Lot #016591), was reconstituted to 20 mg/mL with sterile saline and stored at 4° C. A fresh dosing solution was prepared for each dose by dilution with saline. Doxorubicin (Doxorubicin Meiji®, Meiji Pharmaceutical Co. Ltd., 1 mg/mL) was stored at 4° C. and diluted with saline on each treatment day. Vincristine (Hospira, Inc., 1 mg/mL) was diluted with saline on each treatment day. Prednisone (Boehringer Ingelheim GmbH, 1 mg/mL) was diluted with PBS at the beginning of each 5-day dosing cycle.
Mice were treated at compound doses ranging from 75-600 mg/kg and at TID (3 times a day every 8 h), BID (twice a day every 12 h) or QD (once a day) schedules for various amount of days by oral gavage or injections via the intravenous, intraperitoneal or subcutaneous routes. Each dose was delivered in a volume of 0.2 mL/20 g mouse (10 mL/kg), and adjusted for the last recorded weight of individual animals. The maximal treatment length was 28 days.
Treatment efficacy was determined on the last treatment day. MTV(n), the median tumor volume for the number of animals, n, evaluable on the last day, was determined for each group. Percent tumor growth inhibition (% TGI) can be defined several ways. First, the difference between the MTV(n) of the designated control group and the MTV(n) of the drug-treated group is expressed as a percentage of the MTV(n) of the control group: […]
Another way of calculating % TGI is taking the change of the tumor size from day 1 to day n into account with n being the last treatment day.
SCID mice were subcutaneously injected with 1×10^7 WSU-DLCL2 human lymphoma cells. […] Tumor volume was measured twice a week until the endpoint of 28 days.

[10] = system: H3K27me3; assay: Histone methylation status in WSU-DLCL2 xenograft tumors, Western blot and ELISA; assay type: in vivo, SCID mice; settings: after 28 days of treatment
Procedure: Histones were extracted from tumor samples as described above. […] The plates were sealed and incubated overnight at 4° C. The following day, plates were washed 3× with 300 ul/well PBST (PBS+0.05% Tween 20; 10×PBST, KPL #51-14-02) on a Bio Tek plate washer. Plates were blocked with 300 ul/well of diluent (PBS+2% BSA+0.05% Tween 20), incubated at RT for 2 hours, and washed 3× with PBST. All antibodies were diluted in diluent. […] Plates were washed 4× with PBST. For detection, 100 ul/well of TMB substrate (BioFx Laboratories, #TMBS) was added and plates incubated in the dark at RT for 5 min. […] Absorbance at 450 nm was read on SpectaMax M5 Microplate reader.

[11] = system: SUDHL6 human lymphoma cells; assay: Efficacy study in SUDHL6 xenograft model; assay type: in vivo, athymic nude mice; settings: Compound 44 alone over the 28 day treatment
Procedure: as §2, §3, §5

[12] = Compound 44 for 4 days, then Compound 44 plus agent for 4 days (FIG. 1A schedule)

C[C@@H]1C[C@H]2[C@@H]3CCC4=CC(=O)C=C[C@]4(C)[C@@]3(F)[C@@H](O)C[C@]2(C)[C@@]1(O)C(=O)CO [Dexamethasone]
enhancement of Compound 44 potency (fold IC50 shift) [1]: 3 fold
enhancement of Compound 44 potency (fold IC50 shift) [2]: 17 fold

N.N.[Cl][Pt][Cl] [Cisplatin]
synergy characterization (Chou-Talalay) [1]: synergism
combination benefit [3]: no combination benefit; also recorded: No enhancement
synergy characterization (Chou-Talalay) [2]: Synergism

CC[C@]1(O)C[C@H]2CN(CCc3c([nH]c4ccccc34)[C@@](C(=O)OC)(c3cc4c(cc3OC)N(C=O)[C@H]3[C@@](O)(C(=O)OC)[C@H](OC(C)=O)[C@]5(CC)C=CCN6CC[C@]43[C@@H]65)C2)C1 [Vincristine]
cell viability, combination with Compound 44 [4, 12]: reduced cell viability at the highest concentration Compound 44

CCN(c1cc(-c2ccc(CN3CCOCC3)cc2)cc(C(=O)NCc2c(C)cc(C)[nH]c2=O)c1C)C1CCOCC1 [Compound 44, N-((4,6-dimethyl-2-oxo-1,2-dihydropyridin-3-yl)methyl)-5-(ethyl (tetrahydro-2H-pyran-4-yl)amino)-4-methyl-4′-(morpholinomethyl)-[1,1′-biphenyl]-3-carboxamide]
cell viability [5]: does not affect cell viability; also recorded: do not show sensitivity
cell viability ([4]; single agent, increasing concentrations, WSU-DLCL2 (EZH2 Y641F)): decrease in cell viability; also recorded: reduction of cell growth
% TGI from day 7 ([6]; Compound 44 125 mg/kg BID): 57%
% TGI from day 7 ([6]; Compound 44 250 mg/kg BID): 113%
% TGI from day 7 ([6]; Compound 44 500 mg/kg BID): 115%
Compound 44 plasma level, with CHOP vs single agent ([7]; day 28, 3 hours after the last dose): significantly increased
Compound 44 plasma level, with CHOP vs single agent ([7]; day 28, trough (5 minutes prior to the last dose)): not significantly different
sensitivity of cell viability ([3]; Compound 44 alone): no sensitivity
cell viability [8]: does not result in a reduction in cell viability
% TGI from day 1 ([9]; Compound 44 150 mg/kg TID): 73%
% TGI from day 7 ([9]; Compound 44 150 mg/kg TID): 86%
% TGI from day 1 ([9]; Compound 44 225 mg/kg BID): 71%
% TGI from day 7 ([9]; Compound 44 225 mg/kg BID): 80%
% TGI from day 1 ([9]; Compound 44 300 mg/kg BID): 57%
% TGI from day 7 ([9]; Compound 44 300 mg/kg BID): 67%
% TGI from day 1 ([9]; Compound 44 600 mg/kg QD): 58%
% TGI from day 7 ([9]; Compound 44 600 mg/kg QD): 70%
methylation of H3K27 in tumors, ELISA ([10]; H3K27me3 normalized to total H3): inhibited
methylation of H3K27 in tumors, Western blot ([10]; all dosages and dosing schedules): inhibited
single agent efficacy [11]: not observed

C[C@]12C=CC(=O)C=C1CC[C@@H]1[C@@H]2[C@@H](O)C[C@@]2(C)[C@H]1CC[C@]2(O)C(=O)CO [Prednisolone]
cell viability, combination with Compound 44 ([5]; FIG. 1A schedule): does not have an additional or synergistic effect on cell viability
cell viability [5]: show sensitivity
enhancement of Compound 44 potency (fold IC50 shift) [1]: 3 fold
cell viability, combination with Compound 44 ([4]; Compound 44 first, then agent alone (FIG. 1B schedule)): additional reduction of cell viability
cell viability, combination with Compound 44 [4, 12]: synergistic reduction in cell viability; also recorded: additional reduction of cell growth; also recorded: reduced cell viability
cell viability, combination with Compound 44 ([4]; agent first, then Compound 44 plus agent (FIG. 1C schedule)): did not cause a synergistic effect on cell viability
combination benefit [3]: no combination benefit; also recorded: No enhancement
cell viability, combination with Compound 44 ([8]; FIG. 1A schedule): synergistic effect
cell viability [8]: resistant
enhancement of Compound 44 potency (fold IC50 shift) [2]: 7 fold

CO[C@H]1C[C@@H]2CC[C@@H](C)[C@@](O)(O2)C(=O)C(=O)N2CCCC[C@H]2C(=O)O[C@H]([C@H](C)C[C@@H]2CC[C@@H](OCCO)[C@H](OC)C2)CC(=O)[C@H](C)/C=C(\C)[C@@H](O)[C@@H](OC)C(=O)[C@H](C)C[C@H](C)/C=C/C=C/C=C/1C [Everolimus]
synergy characterization (Chou-Talalay) [1]: Strong synergism
combination benefit [3]: no combination benefit; also recorded: No enhancement
synergy characterization (Chou-Talalay) [2]: very strong synergism

Nc1ccn([C@@H]2O[C@H](CO)[C@@H](O)[C@@H]2O)c(=O)n1 [AraC]
synergy characterization (Chou-Talalay) [1]: Synergism
combination benefit [3]: no combination benefit; also recorded: No enhancement
synergy characterization (Chou-Talalay) [2]: Synergism

COc1cccc2c1C(=O)c1c(O)c3c(c(O)c1C2=O)C[C@@](O)(C(=O)CO)C[C@@H]3O[C@H]1C[C@H](N)[C@H](O)[C@H](C)O1 [Doxorubicin]
synergy characterization (Chou-Talalay) [1]: Synergism
cell viability, combination with Compound 44 [4, 12]: did not exhibit reduced cell viability
combination benefit [3]: no combination benefit; also recorded: No enhancement
synergy characterization (Chou-Talalay) [2]: Synergism
